According to patent US7741020B2, “Methods for detecting Lp-PLA2 activity and inhibition of Lp-PLA2 activity” (Glaxo Group Limited, priority 2004, dated 2010):
“And” between values parts separate entries of the source, which are not always exact repeats. Equal entries are not always repeated.

Columns and labels:
Lp-PLA2 [1] = molecular target: T1, Lp-PLA2 (Homo sapiens, UniProt Q13093); test: Auto PAF AH assay (Azwell kit, Olympus Au640 analyzer); format: biochemical; settings: plasma of individual human subjects
T1 sequence (Q13093 22-441): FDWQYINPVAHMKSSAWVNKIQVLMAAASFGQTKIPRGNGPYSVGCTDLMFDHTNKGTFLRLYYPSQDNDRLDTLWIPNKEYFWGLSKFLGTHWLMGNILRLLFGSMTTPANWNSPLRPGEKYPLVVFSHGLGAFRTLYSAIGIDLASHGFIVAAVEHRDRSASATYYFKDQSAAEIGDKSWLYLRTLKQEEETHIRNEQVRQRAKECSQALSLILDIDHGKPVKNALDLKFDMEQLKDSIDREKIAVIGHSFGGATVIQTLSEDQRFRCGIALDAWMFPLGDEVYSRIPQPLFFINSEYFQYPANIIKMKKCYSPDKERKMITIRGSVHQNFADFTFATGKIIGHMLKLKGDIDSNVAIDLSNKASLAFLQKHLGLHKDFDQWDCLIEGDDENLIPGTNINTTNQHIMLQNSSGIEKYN
Experimental: The Auto PAF AH assay kit, manufactured by Azwell (Osaka, Japan), is commercially available in the United States through Karlan Research Products Corporation (Santa Rosa, Calif.).
Prepare the following reagents: • R1: Use this buffer solution as supplied in Azwell Auto PAF AH assay kit. Store at 4° C. Protect from light. • R2: Prepare the R2 working solution by mixing R2A and R2B (supplied in Azwell Auto PAF AH assay kit) in the proportion of 19:1, Store at 4° C. Protect from light. • 3. […] Briefly centrifuge to spin down fibrin clots/particles in the plasma. • 4. Place Sarstedt tubes containing plasma samples onto sample tubes that fit the instrument. Run plasma samples through the Au640 analyzer. After choosing the PAF AH assay program, the analytical procedure described below is performed automatically: • Test sample (2 μL)+R1 (240 μL), 37° C., 5 minutes [0-5 minutes] • Add R2 (80 μL), 37° C., 5 minutes [5-10 minutes] • Measure the absorbance at 410 nm and 480 nm [6-8 minutes] • Calculate PAF AH activity (IU/L) • 5.

Lp-PLA2 [2] = molecular target: T1, Lp-PLA2; test: High throughput radiometric assay for Lp-PLA2 activity (3H-PAF); format: biochemical; settings: 50 mg, plasma of individual human subjects
Experimental: (cat #6005162) Reagents • HEPES (4-(2-hydroxyethyl)-1-piperazineethane sulfonic acid) Sigma Chemical Co., St. Louis Mo. […] (Cat # E7889; 0.5 M) • ^3H-Platelet Activating Factor, 1-O-Hexadecyl-[acetyl-^3H(N)], (^3H-PAF)-NEN Life Science Products, Roxbury, Mass. (Cat # NET-910, supplied as an ethanol solution, typically 0.1 mCi/mL; 250 uCi) • C16-PAF, (1-hexadecyl-2-acetyl-sn-glycero-3-phosphocholine): Avanti Polar Lipids, Alabaster, Ala. […] (Cat # T9159) Assay Buffer • 100 mM Hepes, pH 7.4 • 150 mM NaCl • 5 mM EDTA • Store it at room temperature Procedures • 1. Prepare a ^3H-PAF working solution (for 100 reactions): • a) Aliquot 480 μl ^3H-PAF (10 μM=0.1 mCi/ml at 10.0 Ci/mmol) and 125.3 μl of [C16]PAF (5.0 mg/ml; MW: 524) to a tube; • b) Mix and air dry in the hood; • c) Resuspend the dried pellets in 12.0 ml of assay buffer giving working solutions of 100 μM PAF (i.e. ^3H-PAF at 0.4 μM and cold [C16]PAF at 99.6 μM); • 2. Aliquot 5 μL of assay buffer (for Total counts and Blanks; n=8) or plasma samples in duplicates into a 96-well plate; • 3. Equilibrate the plate to 21° C.; • 4. Add 100 μL of the ^3H-PAF solution to each well, mix and incubate the plate at 21° C. for 5 minutes; • 5. […]; • 6. Add 25 μL of ice-cold TCA solution (56%) to each well, mix and incubate the plate in a refrigerator for 15 minutes; • 7. Centrifuge the plate at 6,000 g for 15 minutes at 4° C.; • 8. […] Add 10 μL of ^3H-PAF working solution to 6 Total Counts wells; • 10. […] Cover the plate with a plate tape and vortex mix at max speed for 10 minutes; • 12. […] Count with a TopCount scintillation counter for 2 minutes each; and • 14.

COCCN1CCC(N(Cc2ccc(-c3ccc(C(F)(F)F)cc3)cc2)C(=O)Cn2c(SCc3cccc(F)c3F)cc(=O)c3ccccc32)CC1 [Formula I]
% Inhibition Auto PAF AH (Lp-PLA2 [1]; 50 mg, 0.5 hr after dosing): 10.84% and 0.65% and −6.65% and 10.66% and 8.03%
Lp-PLA2 Activity Auto PAF AH (Lp-PLA2 [1]; 50 mg, 0.5 hr after dosing): 456.50 nmol/min/mL and 308.00 nmol/min/mL and 393.00 nmol/min/mL and 272.50 nmol/min/mL and 647.00 nmol/min/mL
% Inhibition Auto PAF AH (Lp-PLA2 [1]; 50 mg, 1 hr after dosing): 11.15% and 14.00% and 19.04%
Lp-PLA2 Activity Auto PAF AH (Lp-PLA2 [1]; 50 mg, 1 hr after dosing): 271.00 nmol/min/mL and 605.00 nmol/min/mL and 242.00 nmol/min/mL and 340.50 nmol/min/mL
% Inhibition Auto PAF AH (Lp-PLA2 [1]; 50 mg, 2 hr after dosing): 10.98% and 20.47% and 9.03%
Lp-PLA2 Activity Auto PAF AH (Lp-PLA2 [1]; 50 mg, 2 hr after dosing): 271.50 nmol/min/mL and 559.50 nmol/min/mL and 282.00 nmol/min/mL and 348.00 nmol/min/mL
Lp-PLA2 Activity Auto PAF AH (Lp-PLA2 [1]; 50 mg, 3 hr after dosing): 277.50 nmol/min/mL and 602.50 nmol/min/mL and 435.00 nmol/min/mL and 287.50 nmol/min/mL and 348.00 nmol/min/mL
% Inhibition Auto PAF AH (Lp-PLA2 [1]; 50 mg, 4 hr after dosing): 15.90% and 10.52% and 0.32% and 8.14%
Lp-PLA2 Activity Auto PAF AH (Lp-PLA2 [1]; 50 mg, 4 hr after dosing): 256.50 nmol/min/mL and 629.50 nmol/min/mL and 409.00 nmol/min/mL and 309.00 nmol/min/mL and 338.50 nmol/min/mL
% Inhibition Auto PAF AH (Lp-PLA2 [1]; 50 mg, 5 hr after dosing): 10.33% and 7.39% and 24.80% and 9.84% and 8.68%
Lp-PLA2 Activity Auto PAF AH (Lp-PLA2 [1]; 50 mg, 5 hr after dosing): 273.50 nmol/min/mL and 651.50 nmol/min/mL and 385.00 nmol/min/mL and 279.50 nmol/min/mL and 336.50 nmol/min/mL
% Inhibition Auto PAF AH (Lp-PLA2 [1]; 50 mg, 6 hr after dosing): 10.33% and 8.74% and 24.12% and 11.80%
Lp-PLA2 Activity Auto PAF AH (Lp-PLA2 [1]; 50 mg, 6 hr after dosing): 273.50 nmol/min/mL and 642.00 nmol/min/mL and 388.50 nmol/min/mL and 306.50 nmol/min/mL and 325.00 nmol/min/mL
% Inhibition Auto PAF AH (Lp-PLA2 [1]; 50 mg, 9 hr after dosing): 6.23% and 18.76% and 12.99% and 6.61% and 15.33%
% Inhibition Auto PAF AH (Lp-PLA2 [1]; 50 mg, 12 hr after dosing): 14.26% and 18.76% and −8.39%
Lp-PLA2 Activity Auto PAF AH (Lp-PLA2 [1]; 50 mg, 12 hr after dosing): 261.50 nmol/min/mL and 409.50 nmol/min/mL and 336.00 nmol/min/mL and 307.00 nmol/min/mL
% Inhibition Auto PAF AH (Lp-PLA2 [1]; 120 mg, 0.5 hr after dosing): 15.42% and 8.74% and 9.58% and 6.66%
% Inhibition Auto PAF AH (Lp-PLA2 [1]; 120 mg, 1 hr after dosing): 11.34% and 7.73%
% Inhibition Auto PAF AH (Lp-PLA2 [1]; 120 mg, 2 hr after dosing): 18.04% and 21.33% and 8.63% and 18.61% and 21.05%
% Inhibition Auto PAF AH (Lp-PLA2 [1]; 120 mg, 3 hr after dosing): 12.42% and 16.24% and 5.90% and 14.65%
% Inhibition Auto PAF AH (Lp-PLA2 [1]; 120 mg, 5 hr after dosing): −1.63% and 5.62%
Lp-PLA2 Activity Auto PAF AH (Lp-PLA2 [1]; 120 mg, 5 hr after dosing): 353.50 nmol/min/mL and 748.00 nmol/min/mL and 416.00 nmol/min/mL and 428.50 nmol/min/mL and 377.00 nmol/min/mL
% Inhibition Auto PAF AH (Lp-PLA2 [1]; 120 mg, 6 hr after dosing): 13.73% and 2.99% and 6.47%
Lp-PLA2 Activity Auto PAF AH (Lp-PLA2 [1]; 120 mg, 6 hr after dosing): 330.00 nmol/min/mL and 714.00 nmol/min/mL and 412.00 nmol/min/mL and 393.00 nmol/min/mL and 366.00 nmol/min/mL
% Inhibition Auto PAF AH (Lp-PLA2 [1]; 120 mg, 9 hr after dosing): 11.63%
% Inhibition Auto PAF AH (Lp-PLA2 [1]; 120 mg, 12 hr after dosing): 7.06% and −3.52%
% Inhibition Radiometric (Lp-PLA2 [2]; 0.5 hr after dosing): 22.34% and 17.17% and 25.59%
Lp-PLA2 Activity Radiometric (Lp-PLA2 [2]; 0.5 hr after dosing): 65.24 nmol/min/mL and 50.18 nmol/min/mL and 78.40 nmol/min/mL and 22.46 nmol/min/mL and 104.52 nmol/min/mL
% Inhibition Radiometric (Lp-PLA2 [2]; 1 hr after dosing): 77.76% and 60.11%
Lp-PLA2 Activity Radiometric (Lp-PLA2 [2]; 1 hr after dosing): 15.85 nmol/min/mL and 26.80 nmol/min/mL and 18.68 nmol/min/mL and 10.60 nmol/min/mL and 30.87 nmol/min/mL
Lp-PLA2 Activity Radiometric (Lp-PLA2 [2]; 2 hr after dosing): 10.00 nmol/min/mL
Lp-PLA2 Activity Radiometric (Lp-PLA2 [2]; 4 hr after dosing): 10.02 nmol/min/mL and 20.76 nmol/min/mL and 14.37 nmol/min/mL and 11.47 nmol/min/mL
